Results taken from PMC3527451, “A Pilot Randomized, Placebo Controlled, Double Blind Phase I Trial of the Novel SIRT1 Activator SRT2104 in Elderly Volunteers” (PLoS ONE, 2012).
“Also recorded” adds a separate entry of the source.

What was measured:
[1] = Plasma pharmacokinetics of SRT2104, once daily oral dosing for 28 days in elderly volunteers; type: in vivo, human; conditions: for AUC(0-∞), Geometric Least Square Mean: Day 1, AUC(0-∞); for AUC(0-t)_D, dose-normalized Geometric Least Square Mean / AUC(0-∞)_D, dose-normalized Geometric Least Square Mean / Cmax_D, dose-normalized Geometric Least Square Mean / AUC(0-τ)_D, dose-normalized Geometric Least Square Mean: normalized to 0.5 g
Description: This was a phase I, single-center, double-blind, randomized, placebo-controlled, parallel-arm study to assess the safety, tolerability, pharmacokinetic and initial pharmacodynamic properties of […] Pharmaceuticals, Cambridge, MA, USA) administered for the first time to male and female elderly volunteers 60 to 80 years of age. Volunteers were enrolled between 01 Oct 2009 and 5 Feb 2010. […] The selection of the doses investigated in this study was based upon safety and pharmacokinetic data obtained from a previous clinical study involving SRT2104 [19]. Suitability of participants was defined on the basis of a medical history, physical examination, vital signs, electrocardiogram and laboratory measurements. Subjects were required to have normal fasting glucose levels (4.4 to 6.0 mmol/L) at screening and a body mass index of at least 18 kg/m^2 and no greater than 30 kg/m^2. […] Subjects were deemed ineligible if they participated in any clinical trial with an investigative medicinal product within the past three months prior to the first dose in the current study, had been exposed to more than three new chemical entities within 12 months of enrollment, or used other concomitant medications and herbal products in the previous 3 months that in the opinion of the investigator could interfere with the study procedures or compromise subject safety. Additional exclusions included: women of childbearing potential and non-sterile men, unless they agreed to use acceptable method of contraception; history of alcoholism or drug abuse (including a positive pre-study drug/alcohol test at screening); use of tobacco or nicotine products; history of complications when donating blood or known relative inaccessibility of veins for venipuncture; donation of blood within three months of enrolment; history of significant drug or other allergies. Participants were asked to maintain their usual level of physical activity for the duration of the study. During the treatment phase of the study (days 1 to 28 inclusive), test material (SRT2104 or placebo) was supplied as 250 mg capsules and was administered at approximately the same time every morning, approximately 15 minutes following consumption of a standardized meal (Ensure Plus®, a high energy, high protein liquid meal replacement product providing approximately 650 kcal with approximately 30% of calories derived from fat). Subjects were not permitted to consume additional calories for at least 1-2 hours after dosing, although water was permitted ad libitum. Subjects were also instructed to refrain from caffeine and alcohol for 24 hours prior to screening and during assessments visits. The test material was administered within the investigation clinical unit on the days when serial pharmacokinetic sampling was performed (days 1-2 and 28-29) and at home on the remaining days (days 3-27). A diary card was provided to volunteers to confirm daily consumption of the standardized meal, as well as time of dose and number of capsules taken. Missing doses were recorded. Pharmacokinetic samples were collected through 24 hours post-dose on the first and last day of the dosing period (immediately prior to dosing and at 15, 30 minutes and 1, 2, 3, 4, 8, 12 and 24 hours post-dose). Blood samples for pharmacokinetic analysis were collected in pre-labelled lithium heparin heparin Vacutainers for pharmacokinetic analysis (∼4 mL per draw). Each sample was separated by centrifugation at 1500×g and 4°C for 10 minutes. Two equal aliquots of plasma were transferred to polypropylene vials labelled identically to the original blood sample and stored at approximately -20°C for subsequent analysis of plasma SRT2104 concentration. The bio-analysis was performed by Simbec Research Ltd, […], South Wales, UK. Pharmacokinetic parameters for SRT2104 were derived from non-compartmental methods using WinNonLin v5.2 (Pharsight Corporation, Mountain View, CA, USA). […]

[2] = test system: bacterial reverse mutation assay (AMES test), mouse lymphoma and mouse micronucleus; parameters: method as in ref 17, 18; SRT2104 Investigator's Brochure; conditions: preclinical; SRT2104 Investigator's Brochure; cited from earlier work
CYP2D6 = conditions: human liver microsomes; cited from earlier work
CYP3A4 = test system: CYP3A4; parameters: method as in ref 17, 18 (a number printed in a supplementary file, which may have a reference list of its own: not looked up in the article's list); conditions: cultured hepatocytes, at the concentrations tested; cited from earlier work
DIO mice and ob/ob mice = conditions: cited from earlier work
healthy male subjects = test system: healthy male subjects; parameters: method as in SRT-2104-002; conditions: 250 mg oral suspension and intravenous microdose of 100µg 14C-SRT2104, eight healthy male subjects; ref SRT-2104-002; cited from earlier work
[3] = 0.5 or 2.0 g once daily, abstract summary
[4] = once daily oral administration, ref SRT2104 Investigator's Brochure

Cc1nc(-c2cccnc2)sc1C(=O)Nc1ccccc1-c1cn2c(CN3CCOCC3)csc2n1 [SRT2104]
Tmax (mean peak plasma concentration) ([1]; 0.5 g/day group): 2 to 4 h
between-subject variability for AUC(0–24), geometric mean CV ([1]; 0.5 g/day group): 140%
t1/2 of one subject ([1]; 0.5 g/day group, after first administration): 29.7 h
t1/2 of one subject ([1]; 0.5 g/day group, after repeated administrations): 28.3 h
AUC(0-t), Geometric Least Square Mean ([1]; 0.5 g/day, Day 1): 1950.07 ng·h/mL
Cmax, Geometric Least Square Mean ([1]; 0.5 g/day, Day 1): 326.22 ng/mL
AUC(0-∞), Geometric Least Square Mean ([1]; 0.5 g/day): 2503.70 ng·h/mL
AUC0-∞ ([1]; 0.5 g/day, Day 1, geometric mean): 1790.8 ng·h/mL
AUC0-t ([1]; 0.5 g/day, Day 1, mean): 1872.9 ng·h/mL
CL/F ([1]; 0.5 g/day, Day 1, mean): 594.2 L/h
Cmax ([1]; 0.5 g/day, Day 1, mean): 343.4 ng/mL
t1/2 ([1]; 0.5 g/day, Day 1, mean): 14.9 h
tmax ([1]; 0.5 g/day, Day 1, median): 3.0 h
AUC(0-t), Geometric Least Square Mean ([1]; 0.5 g/day, Day 28): 1610.10 ng·h/mL
Cmax, Geometric Least Square Mean ([1]; 0.5 g/day, Day 28): 199.12 ng/mL
AUC0-∞ ([1]; 0.5 g/day, Day 28, geometric mean): 2687.8 ng·h/mL
AUC0-t ([1]; 0.5 g/day, Day 28, mean): 2280.4 ng·h/mL
CL/F ([1]; 0.5 g/day, Day 28, mean): 566.9 L/h
Cmax ([1]; 0.5 g/day, Day 28, mean): 373.4 ng/mL
t1/2 ([1]; 0.5 g/day, Day 28, mean): 17.5 h
tmax ([1]; 0.5 g/day, Day 28, median): 3.0 h
Mean Tmax [1, 3]: 2 to 4 h
elimination half-life [1, 3]: 15 to 20 h
dose proportionality of exposure (Cmax, AUC) ([1]; 0.5 to 2.0 g/day): less than dose-proportionally; also recorded: less than dose proportional increase in exposure
between-subject variability for AUC(0–24), geometric mean CV ([1]; 2.0 g/day group): 102%
Tmax (apparent mean rise to peak concentration) ([1]; 2.0 g/day group, after the first dose): 2 to 8 h
AUC(0-t), Geometric Least Square Mean ([1]; 2.0 g/day, Day 1): 1743.14 ng·h/mL
Cmax, Geometric Least Square Mean ([1]; 2.0 g/day, Day 1): 301.28 ng/mL
AUC(0-∞), Geometric Least Square Mean ([1]; 2.0 g/day): 1788.42 ng·h/mL
AUC0-∞ ([1]; 2.0 g/day, Day 1, geometric mean): 2073.5 ng·h/mL
AUC0-t ([1]; 2.0 g/day, Day 1, mean): 3249.2 ng·h/mL
CL/F ([1]; 2.0 g/day, Day 1, mean): 1624.4 L/h
Cmax ([1]; 2.0 g/day, Day 1, mean): 477.6 ng/mL
t1/2 ([1]; 2.0 g/day, Day 1, mean): 15.1 h
tmax ([1]; 2.0 g/day, Day 1, median): 3.0 h
AUC(0-t), Geometric Least Square Mean ([1]; 2.0 g/day, Day 28): 3577.50 ng·h/mL
Cmax, Geometric Least Square Mean ([1]; 2.0 g/day, Day 28): 389.50 ng/mL
AUC0-∞ ([1]; 2.0 g/day, Day 28, geometric mean): 7729.6 ng·h/mL
AUC0-t ([1]; 2.0 g/day, Day 28, mean): 4797.4 ng·h/mL
CL/F ([1]; 2.0 g/day, Day 28, mean): 789.6 L/h
Cmax ([1]; 2.0 g/day, Day 28, mean): 572.4 ng/mL
t1/2 ([1]; 2.0 g/day, Day 28, mean): 21.6 h
tmax ([1]; 2.0 g/day, Day 28, median): 3.0 h
increase in mean AUC(0–24) relative to the first day of dosing ([1]; 2.0 g/day, repeat administration): approximately two-fold increases
AUC(0-t)_D, dose-normalized Geometric Least Square Mean ([1]; Day 1, 0.5 g/day): 1297.86 ng·h/mL
AUC(0-∞)_D, dose-normalized Geometric Least Square Mean ([1]; Day 1, 0.5 g/day): 1754.57 ng·h/mL
Cmax_D, dose-normalized Geometric Least Square Mean ([1]; Day 1, 0.5 g/day): 215.74 ng/mL
AUC(0-t)_D, dose-normalized Geometric Least Square Mean ([1]; Day 1, 2.0 g/day): 516.59 ng·h/mL
AUC(0-∞)_D, dose-normalized Geometric Least Square Mean ([1]; Day 1, 2.0 g/day): 504.43 ng·h/mL
Cmax_D, dose-normalized Geometric Least Square Mean ([1]; Day 1, 2.0 g/day): 69.64 ng/mL
AUC(0-t)_D, % Ratio (90% C.I.) 2.0 g/0.5 g ([1]; Day 1, dose proportionality): 39.80 (14.39–110.07) %
AUC(0-∞)_D, % Ratio (90% C.I.) 2.0 g/0.5 g ([1]; Day 1, dose proportionality): 28.75 (9.56–86.49) %
Cmax_D, % Ratio (90% C.I.) 2.0 g/0.5 g ([1]; Day 1, dose proportionality): 32.28 (10.41–100.15) %
AUC(0-t)_D, dose-normalized Geometric Least Square Mean ([1]; Day 28, 0.5 g/day): 1548.09 ng·h/mL
AUC(0-τ)_D, dose-normalized Geometric Least Square Mean ([1]; Day 28, 0.5 g/day): 1548.74 ng·h/mL
AUC(0-∞)_D, dose-normalized Geometric Least Square Mean ([1]; Day 28, 0.5 g/day): 2636.12 ng·h/mL
Cmax_D, dose-normalized Geometric Least Square Mean ([1]; Day 28, 0.5 g/day): 206.06 ng/mL
AUC(0-t)_D, dose-normalized Geometric Least Square Mean ([1]; Day 28, 2.0 g/day): 911.01 ng·h/mL
AUC(0-τ)_D, dose-normalized Geometric Least Square Mean ([1]; Day 28, 2.0 g/day): 909.85 ng·h/mL
AUC(0-∞)_D, dose-normalized Geometric Least Square Mean ([1]; Day 28, 2.0 g/day): 1903.42 ng·h/mL
Cmax_D, dose-normalized Geometric Least Square Mean ([1]; Day 28, 2.0 g/day): 96.83 ng/mL
AUC(0-t)_D, % Ratio (90% C.I.) 2.0 g/0.5 g ([1]; Day 28, dose proportionality): 58.85 (25.18–137.51) %
AUC(0-τ)_D, % Ratio (90% C.I.) 2.0 g/0.5 g ([1]; Day 28, dose proportionality): 58.75 (25.10–137.52) %
AUC(0-∞)_D, % Ratio (90% C.I.) 2.0 g/0.5 g ([1]; Day 28, dose proportionality): 72.21 (33.02–157.88) %
Cmax_D, % Ratio (90% C.I.) 2.0 g/0.5 g ([1]; Day 28, dose proportionality): 46.99 (15.44–142.99) %
Cmax, AUC(0-τ) and AUC(0–24) exposures in the 2.0 g/day group compared to the 0.5 g/day group ([1]; human, in vivo): approximately two-fold higher or less
differences in exposure between men and women ([1]; human, in vivo): No apparent differences in exposure
apparent half-life ([1]; mono-exponential decline, both doses): approximately 15 hours
genotoxicity [2]: not genotoxic
inhibition of CYP2D6 (CYP2D6): not an inhibitor; also recorded: does not inhibit
induction of CYP3A4 (CYP3A4): not a significant inducer
cholesterol, LDL and triglycerides in preclinical models of dyslipidemia, diabetes and obesity (DIO mice and ob/ob mice; e.g. DIO and Lep ob/ob obese mice): lower cholesterol, LDL and triglycerides
glucose and insulin levels (DIO mice and ob/ob mice; once daily oral 0.1 g/kg for 7 days or more, ref SRT2104 Investigator's Brochure): reduces glucose and insulin levels
body weight (DIO mice and ob/ob mice; [4]): No effect on body weight
fasting blood glucose and fed insulin (DIO mice and ob/ob mice; [4]): lowered
response to a glucose tolerance test (DIO mice and ob/ob mice; [4]): enhanced the response to a glucose tolerance test
adverse reactions in mouse models of diabetes (DIO mice and ob/ob mice; up to 0.3 g/kg orally once daily for 28 days, ref SRT2104 Investigator's Brochure): No adverse reactions
tolerability (healthy male subjects): well-tolerated
